Results as given in US12534450B2, “Methods and compositions for targeting PD-L1” (Aligos Therapeutics, Inc., priority 2021, dated 2026).

Assays:
PD-1/PD-L1 PPI = PD-1/PD-L1 PPI (Homo sapiens, UniProt Q9NZQ7); assay: PDL1/PD1 Binding Assay; settings: PDL1-6×His 0.3 nM, PD1-Fc-Avi-Biotin 2.5 nM, Acceptor/Donor beads, Envision reader
Description: Compounds to be tested were serially diluted in DMSO, and further diluted in assay buffer (25 mM Hepes pH 7.4, 150 mM NaCl, 0.005% Tween 20, BSA 0.01%). Diluted compounds were added to the wells with final concentration of DMSO at 1%. PDL1-6×His protein was added to the wells, mixed well with compound. The plates were incubated for 30 min at room temperature. PD1-Fc-Avi-Biotin protein was added to the wells. Final concentration of PDL1 and PD1 protein is 0.3 nM and 2.5 nM, respectively. After a binding time of 30 min at room temperature, Anti-6×His Acceptor beads (final concentration 20 ug/ml) were added to the wells, and the incubation continued for 1 h. Streptavidin Donor beads (final concentration 20 ug/mL) were added at reduced light. The plates were sealed with foil and incubated in the dark for additional 1 h or overnight before reading on an Envision reader. The IC50 values were determined by fitting the curves using a four-parameter equation in Graphpad Prism 8.

PD-1/PD-L1 interaction = assay: PD-1/PD-L1 NFAT Reporter Assay (co-culture of Jurkat T cells overexpressing PD-1 and PD-L1 expressing CHO cells); type: cell-based; settings: co-culture 6 hrs at 37° C., NFAT-mediated luciferase activity
Description: Blocking the PD-1/PD-L1 interaction will release the inhibitory signal and results in TCR signaling and NFAT-mediated luciferase activity.
CHO cells expressing surface-bound anti-CD3 antibodies and PD-L1 were first seeded overnight and treated with the compounds. Jurkat cells overexpressing PD-1 and a luciferase construct under NFAT promoter were then immediately seeded on the monolayer of CHO cells. The co-culture was then incubated for 6 hrs at 37° C. Luciferase activity was assessed by adding the ONE-Glo reagent and measuring luminescence with a plate reader. EC50 values were determined from the fit of the dose-response curves.

Sequence of PD-1/PD-L1 PPI (Q9NZQ7 19-238 limits assumed): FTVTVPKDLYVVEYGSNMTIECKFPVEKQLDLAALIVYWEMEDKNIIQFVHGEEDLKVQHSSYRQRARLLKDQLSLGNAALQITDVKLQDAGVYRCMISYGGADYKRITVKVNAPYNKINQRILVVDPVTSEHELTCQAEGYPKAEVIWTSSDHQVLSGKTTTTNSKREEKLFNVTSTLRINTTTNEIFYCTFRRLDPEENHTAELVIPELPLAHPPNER

| IC50 (PD-1/PD-L1 PPI) | EC50 (PD-1/PD-L1 interaction; Homo sapiens, Jurkat, 6 h) | EC50 (PD-1/PD-L1 interaction) | SMILES |
| --- | --- | --- | --- |
| ≤ 10 nM | 100 to 1000 nM |  | COc1nc(-c2cccc(-c3cccc(NC(=O)c4cn(C)c(=O)n(C)c4=O)c3Cl)c2Cl)cc2c1[C@@H](NC[C@@H]1CNC(=O)C1)CC2 (single isomer, unassigned) [Compound A-135] |
| ≤ 10 nM | ≤ 10 nM |  | COc1nc(-c2cccc(-c3cccc(NC(=O)c4ccnn(C)c4=O)c3C)c2Cl)cc2c1[C@@H](NC[C@@H]1CCC(=O)N1)CO2 [Compound A-46] |
| ≤ 10 nM | ≤ 10 nM |  | COc1nc(-c2cccc(-c3cccc(NC(=O)c4cn(C)c(=O)n(C)c4=O)c3Cl)c2C)cc2c1[C@@H](NC[C@@H]1CCC(=O)N1)CC2 [Compound A-4] |
| ≤ 10 nM | ≤ 10 nM |  | COc1nc(-c2cccc(-c3cccc(NC(=O)c4nn(C)c(=O)n(C)c4=O)c3Cl)c2Cl)cc2c1[C@H](N[C@@H]1CCOC[C@H]1O)CC2 (single isomer, unassigned) [Compound A-94] |
| ≤ 10 nM | 10 to 100 nM |  | COc1nc(-c2cccc(-c3cccc(NC(=O)c4cn(C)c(=O)n(C)c4=O)c3C)c2C)cc2c1[C@@H](N1CC(OC)C1)CC2 (single isomer, unassigned) [Compound A-83] |
| ≤ 10 nM | 1000 to 10000 nM |  | COc1nc(-c2cccc(-c3cccc(NC(=O)c4nn(C)c(=O)n(C)c4=O)c3C)c2C)cc2c1[C@H](N[C@@H]1COC[C@@H]1O)CC2 (single isomer, unassigned) [Compound A-112] |
| ≤ 10 nM |  | 100 to 1000 nM | COc1nc(-c2cccc(-c3cccc(NC(=O)c4cn(C)c(=O)n(C)c4=O)c3C)c2Cl)cc2c1C(NC[C@@H]1CCC(=O)N1)C(O)C2 (single isomer, unassigned) [Compound A-128] |
| ≤ 10 nM | 10 to 100 nM |  | COc1nc(-c2cccc(-c3cccc(NC(=O)c4cn(C)c(=O)n(C)c4=O)c3C)c2Cl)cc2c1[C@@H](NC[C@@H]1CCC(=O)N1)CO2 (single isomer, unassigned) [Compound A-19] |
| ≤ 10 nM | ≤ 10 nM |  | COc1nc(-c2cccc(-c3cccc(NC(=O)c4cn(C)c(=O)n(C)c4=O)c3Cl)c2Cl)cc2c1[C@H](N1CC(O)C1)CC2 (single isomer, unassigned) [Compound A-27] |
| ≤ 10 nM | ≤ 10 nM |  | COc1nc(-c2cccc(-c3cccc(NC(=O)c4cn(C)c(=O)n(C)c4=O)c3Cl)c2Cl)cc2c1C(N1CC(O)C1)CC2 [Compound D-2] |
| ≤ 10 nM | ≤ 10 nM |  | COc1nc(-c2cccc(-c3cccc(NC(=O)c4cn(C)c(=O)n(C)c4=O)c3Cl)c2C)cc2c1[C@@H](N[C@@H]1CCOC[C@@H]1O)CC2 (single isomer, unassigned) [Compound A-39] |
| ≤ 10 nM | 10 to 100 nM |  | COc1nc(-c2cccc(-c3cccc(NC(=O)c4cn(C)c(=O)n(C)c4=O)c3C)c2C)cc2c1[C@@H](NC[C@@H]1CCC(=O)N1)CO2 (single isomer, unassigned) [Compound A-49] |
| ≤ 10 nM | 10 to 100 nM |  | CCOC(=O)C1CN([C@H]2CCc3cc(-c4cccc(-c5cccc(NC(=O)c6ccnn(C)c6=O)c5C)c4Cl)nc(OC)c32)C1 (single isomer, unassigned) [Compound A-88] |
| ≤ 10 nM | ≤ 10 nM |  | COc1nc(-c2cccc(-c3cc(F)cc(NC(=O)c4cn(C)c(=O)n(C)c4=O)c3C)c2Cl)cc2c1[C@@H](NC[C@@H]1CCC(=O)N1)CC2 [Compound A-60] |
| ≤ 10 nM | ≤ 10 nM |  | COc1nc(-c2cccc(-c3cccc(NC(=O)c4cn(C)c(=O)n(C)c4=O)c3Cl)c2Cl)cc2c1[C@H](NC[C@@H]1CNC(=O)C1)CC2 (single isomer, unassigned) [Compound A-136] |
| ≤ 10 nM | 100 to 1000 nM |  | COc1nc(-c2cccc(-c3cccc(NC(=O)c4nn(C)c(=O)n(C)c4=O)c3Cl)c2Cl)cc2c1[C@H](N[C@@H]1COC[C@@H]1O)CC2 (single isomer, unassigned) [Compound A-108] |
| ≤ 10 nM |  | 10 to 100 nM | COc1nc(-c2ccc(F)c(-c3cccc(NC(=O)c4cn(C)c(=O)n(C)c4=O)c3C)c2F)cc2c1[C@@H](NC[C@@H]1CCC(=O)N1)CC2 [Compound A-68] |
| ≤ 10 nM | 10 to 100 nM |  | COc1nc(-c2cccc(-c3cccc(NC(=O)c4nn(C)c(=O)n(C)c4=O)c3C)c2C)cc2c1[C@H](N[C@@H]1COC[C@H]1O)CC2 (single isomer, unassigned) [Compound A-104] |
| ≤ 10 nM | 10 to 100 nM |  | CCOC(=O)C1CN([C@H]2CCc3cc(-c4cccc(-c5cccc(NC(=O)c6cn(C)c(=O)n(C)c6=O)c5Cl)c4Cl)nc(OC)c32)C1 (single isomer, unassigned) [Compound A-85] |

| IC50 (PD-1/PD-L1 PPI) | EC50 (PD-1/PD-L1 interaction; Homo sapiens, Jurkat, 6 h) | EC50 (PD-1/PD-L1 interaction) | SMILES |
| --- | --- | --- | --- |
| ≤ 10 nM | ≤ 10 nM |  | COc1nc(-c2cccc(-c3cccc(NC(=O)c4cn(C)c(=O)n(C)c4=O)c3Cl)c2Cl)cc2c1C(N1CC3(CCN(C(C)=O)C3)C1)CC2 (stereo not shown) [Compound H-1] |
| ≤ 10 nM | 10 to 100 nM |  | COc1nc(-c2cccc(-c3cccc(NC(=O)c4cn(C)c(=O)n(C)c4=O)c3C)c2Cl)cc2c1C(NC1CC1)CC2 [Compound D-11] |
| ≤ 10 nM | 1000 to 10000 nM |  | COc1nc(-c2cccc(-c3cccc(NC(=O)c4nn(C)c(=O)n(C)c4=O)c3C)c2C)cc2c1[C@@H](N[C@@H]1CCOC[C@H]1O)CC2 (single isomer, unassigned) [Compound A-91] |
| ≤ 10 nM | 10 to 100 nM |  | COc1nc(-c2cccc(-c3ccc(F)c(NC(=O)c4cn(C)c(=O)n(C)c4=O)c3C)c2Cl)cc2c1[C@@H](NC[C@@H]1CCC(=O)N1)CC2 [Compound A-59] |
| ≤ 10 nM | 10 to 100 nM |  | COc1nc(-c2cccc(-c3cccc(NC(=O)c4cn(C)c(=O)n(C)c4=O)c3C)c2C)cc2c1[C@H](N[C@@H]1CCOC[C@H]1O)CC2 (single isomer, unassigned) [Compound A-90] |
| 10 to 100 nM | 100 to 1000 nM |  | COc1nc(-c2cccc(-c3cccc(NC(=O)c4cn(C)c(=O)n(C)c4=O)c3Cl)c2Cl)cc2c1[C@@H](N1CC3(COCC(=O)N3)C1)CC2 (single isomer, unassigned) [Compound A-133] |
| ≤ 10 nM |  | 10 to 100 nM | COc1nc(-c2cccc(-c3cccc(NC(=O)c4cn(C)c(=O)n(C)c4=O)c3C)c2Cl)cc2c1C(NC[C@@H]1CCC(=O)N1)C(F)C2 (single isomer, unassigned) [Compound K-1a] |
| ≤ 10 nM | ≤ 10 nM |  | COc1nc(-c2cccc(-c3cccc(NC(=O)c4ccn[nH]c4=O)c3Cl)c2Cl)cc2c1[C@@H](NC[C@@H]1CCC(=O)N1)CC2 [Compound A-51] |
| ≤ 10 nM | ≤ 10 nM |  | COc1nc(-c2cccc(-c3cccc(NC(=O)c4cn(C)c(=O)n(C)c4=O)c3C)c2Cl)cc2c1[C@H](N1CC(O)C1)CC2 (single isomer, unassigned) [Compound A-28] |
| ≤ 10 nM | ≤ 10 nM |  | COc1nc(-c2cccc(-c3cccc(NC(=O)c4cn(C)c(=O)n(C)c4=O)c3C)c2C)cc2c1[C@@H](NC[C@@H]1CCC(=O)N1)CC2 [Compound A-5] |
| ≤ 10 nM | ≤ 10 nM |  | COc1nc(-c2cccc(-c3cccc(NC(=O)c4cn(C)c(=O)n(C)c4=O)c3C)c2Cl)cc2c1[C@H](N[C@@H]1CCOC[C@@H]1O)CC2 (single isomer, unassigned) [Compound A-33] |
| ≤ 10 nM | 100 to 1000 nM |  | COc1nc(-c2cccc(-c3cccc(NC(=O)c4cn(C)c(=O)n(C)c4=O)c3Cl)c2Cl)cc2c1[C@H](N1CC(C(=O)O)C1)CC2 (single isomer, unassigned) [Compound J-4] |
| ≤ 10 nM | 10 to 100 nM |  | COc1nc(-c2cccc(-c3cccc(NC(=O)c4ccn[nH]c4=O)c3C)c2Cl)cc2c1[C@@H](NC[C@@H]1CCC(=O)N1)CC2 [Compound A-52] |
| ≤ 10 nM | 10 to 100 nM |  | COc1nc(-c2cccc(-c3cccc(NC(=O)c4nn(C)c(=O)n(C)c4=O)c3C)c2C)cc2c1[C@@H](N[C@@H]1CCOC[C@@H]1O)CC2 (single isomer, unassigned) [Compound A-75] |
| ≤ 10 nM | ≤ 10 nM |  | COc1nc(-c2cccc(-c3cccc(NC(=O)c4cn(C)c(=O)n(C)c4=O)c3Cl)c2Cl)cc2c1[C@@H](N[C@@H]1CCOC[C@@H]1O)CC2 (single isomer, unassigned) [Compound A-29] |
| ≤ 10 nM | ≤ 10 nM |  | COc1nc(-c2cccc(-c3cccc(NC(=O)c4cn(C)c(=O)n(C)c4=O)c3C)c2Cl)cc2c1[C@@H](NC[C@@H]1CCC(=O)N1)CC2 [Compound A-2] |
| ≤ 10 nM | 100 to 1000 nM |  | COc1nc(-c2cccc(-c3cccc(NC(=O)c4cn(C)c(=O)n(C)c4=O)c3Cl)c2Cl)cc2c1[C@@H](N1CC3(CCNC3=O)C1)CC2 (single isomer, unassigned) [Compound A-21] |
| ≤ 10 nM | 100 to 1000 nM |  | COc1nc(-c2cccc(-c3cccc(NC(=O)c4cn(C)c(=O)n(C)c4=O)c3C)c2C)cc2c1[C@H](N[C@@H]1COC[C@H]1O)CC2 (single isomer, unassigned) [Compound A-98] |
| ≤ 10 nM | 100 to 1000 nM |  | COc1nc(-c2cccc(-c3cccc(Nc4nccc5cccnc45)c3Cl)c2Cl)cc2c1[C@@H](NC[C@@H]1CCC(=O)N1)CC2 [Compound B-3] |
